From patent publication US7414071B2, “Methods of treatment with selective EP4 receptor agonists” (Pfizer Inc., priority 2002, dated 2008)

Key:
[1] = tested on: New Zealand White male rabbits; assay: In vivo anesthetized rabbit model (hypotensive effect: mean arterial pressure and heart rate)
Method: Methods: New Zealand White male rabbits (3-4 kg) are anesthetized with sodium pentobarbital (30 mg/kg, i.v.) and a surgical plane of anesthesia is maintained by a continuous infusion of sodium pentobarbital (16 mg/kg/hr) via an ear vein catheter. A tracheotomy is performed through a ventral midline cervical incision and the rabbits are ventilated with 100% oxygen using a positive pressure ventilator. Body temperature is maintained at 38.5° C. using a heating pad connected to a YSI temperature controller model 72 (Yellow Springs Instruments, Yellow Springs, […].). Fluid-filled catheters are placed in the right jugular vein (for intravenous drug administration) and in the right carotid artery for arterial pressure monitoring and for blood gas analysis using a model 248 blood gas analyzer (Bayer Diagnostics, Norwood, Mass.). The ventilator is adjusted as needed to maintain blood pH and pCO2 within normal physiological ranges for rabbits. […] Blood is sampled after dosing or during the infusion of the test compound to determine plasma concentrations of the test compounds.
Thus, dosing volumes were 0.2 ml/kg (Group A) subcutaneously or 5 ml/h (Groups B, C, and D) as an intravenous (IV) infusion. The term “mgA” means the number of milligrams adjusted for active compound (e.g. corrected for salt etc.).
Dosing: Four groups (Groups A, B, C, and D) of two rabbits each were dosed as follows.

[2] = tested on: M. fascicularis primates; assay: In vivo primate model (hypotensive effect: mean arterial pressure and heart rate); conditions: monkeys; for mean arterial pressure (MAP) / heart rate (HR): 0.1 mgA/kg SC bolus, mean of 2; for mean arterial pressure (MAP): baseline 101; for heart rate (HR): baseline 161
[3] = Group D, 1.67 μg/kg/h, 4 hour IV infusion
[4] = Group A, 1 mgA/kg SC, three monkeys
[5] = Group C, 0.1 mgA/kg SC, 2 monkeys

For `O=C([O-])c1ccc(CCCN2C(=O)CC[C@@H]2CC[C@@H](O)Cc2cccc(C(F)(F)F)c2)s1.[Na+]` [Compound 3M sodium salt], the “heart rate (HR)” value ([1]; Group C, 16.7 μg/kg/hr IV infusion for 4 hours, 90 min, mean of 2, baseline 291) was 301 beats/minute, the “mean arterial pressure (MAP)” value ([1]; Group C, 16.7 μg/kg/hr IV infusion for 4 hours, 120 min, mean of 2, baseline 95) was 85 mm Hg and the “heart rate (HR)” value ([1]; Group C, 16.7 μg/kg/hr IV infusion for 4 hours, 120 min, mean of 2, baseline 291) was 304 beats/minute. For the same compound, the “mean arterial pressure (MAP)” value ([1]; Group C, 16.7 μg/kg/hr IV infusion for 4 hours, 150 min, mean of 2, baseline 95) was 85 mm Hg, the “heart rate (HR)” value ([1]; Group C, 16.7 μg/kg/hr IV infusion for 4 hours, 150 min, mean of 2, baseline 291) was 301 beats/minute and the “mean arterial pressure (MAP)” value ([1]; Group C, 16.7 μg/kg/hr IV infusion for 4 hours, 180 min, mean of 2, baseline 95) was 85 mm Hg. For the same compound, the “heart rate (HR)” value ([1]; Group C, 16.7 μg/kg/hr IV infusion for 4 hours, 180 min, mean of 2, baseline 291) was 298 beats/minute, the “mean arterial pressure (MAP)” value ([1]; Group C, 16.7 μg/kg/hr IV infusion for 4 hours, 210 min, mean of 2, baseline 95) was 89 mm Hg and the “heart rate (HR)” value ([1]; Group C, 16.7 μg/kg/hr IV infusion for 4 hours, 210 min, mean of 2, baseline 291) was 307 beats/minute. The “mean arterial pressure (MAP)” value ([1]; Group C, 16.7 μg/kg/hr IV infusion for 4 hours, 240 min, mean of 2, baseline 95) was 89 mm Hg, the “heart rate (HR)” value ([1]; Group C, 16.7 μg/kg/hr IV infusion for 4 hours, 240 min, mean of 2, baseline 291) was 306 beats/minute and the “effect on heart rate” value [1, 3] was “no significant change”. For the same compound, the “effect on mean arterial pressure” value [1, 3] was “no significant change”, the “mean arterial pressure (MAP)” value ([1]; Group D, 1.67 μg/kg/hr IV infusion for 4 hours, 5 min, mean of 2, baseline 89) was 85 mm Hg and the “heart rate (HR)” value ([1]; Group D, 1.67 μg/kg/hr IV infusion for 4 hours, 5 min, mean of 2, baseline 260) was 258 beats/minute. For the same compound, the “mean arterial pressure (MAP)” value ([1]; Group D, 1.67 μg/kg/hr IV infusion for 4 hours, 10 min, mean of 2, baseline 89) was 87 mm Hg, the “heart rate (HR)” value ([1]; Group D, 1.67 μg/kg/hr IV infusion for 4 hours, 10 min, mean of 2, baseline 260) was 260 beats/minute and the “mean arterial pressure (MAP)” value ([1]; Group D, 1.67 μg/kg/hr IV infusion for 4 hours, 15 min, mean of 2, baseline 89) was 85 mm Hg. For the same compound, the “heart rate (HR)” value ([1]; Group D, 1.67 μg/kg/hr IV infusion for 4 hours, 15 min, mean of 2, baseline 260) was 262 beats/minute, the “mean arterial pressure (MAP)” value ([1]; Group D, 1.67 μg/kg/hr IV infusion for 4 hours, 30 min, mean of 2, baseline 89) was 85 mm Hg and the “heart rate (HR)” value ([1]; Group D, 1.67 μg/kg/hr IV infusion for 4 hours, 30 min, mean of 2, baseline 260) was 262 beats/minute. For the same compound, the “mean arterial pressure (MAP)” value ([1]; Group D, 1.67 μg/kg/hr IV infusion for 4 hours, 60 min, mean of 2, baseline 89) was 87 mm Hg, the “heart rate (HR)” value ([1]; Group D, 1.67 μg/kg/hr IV infusion for 4 hours, 60 min, mean of 2, baseline 260) was 255 beats/minute and the “mean arterial pressure (MAP)” value ([1]; Group D, 1.67 μg/kg/hr IV infusion for 4 hours, 90 min, mean of 2, baseline 89) was 87 mm Hg. For the same compound, the “heart rate (HR)” value ([1]; Group D, 1.67 μg/kg/hr IV infusion for 4 hours, 90 min, mean of 2, baseline 260) was 253 beats/minute, the “mean arterial pressure (MAP)” value ([1]; Group D, 1.67 μg/kg/hr IV infusion for 4 hours, 120 min, mean of 2, baseline 89) was 85 mm Hg and the “heart rate (HR)” value ([1]; Group D, 1.67 μg/kg/hr IV infusion for 4 hours, 120 min, mean of 2, baseline 260) was 246 beats/minute. For the same compound, the “mean arterial pressure (MAP)” value ([1]; Group D, 1.67 μg/kg/hr IV infusion for 4 hours, 150 min, mean of 2, baseline 89) was 87 mm Hg, the “heart rate (HR)” value ([1]; Group D, 1.67 μg/kg/hr IV infusion for 4 hours, 150 min, mean of 2, baseline 260) was 246 beats/minute and the “mean arterial pressure (MAP)” value ([1]; Group D, 1.67 μg/kg/hr IV infusion for 4 hours, 180 min, mean of 2, baseline 89) was 87 mm Hg. The “heart rate (HR)” value ([1]; Group D, 1.67 μg/kg/hr IV infusion for 4 hours, 180 min, mean of 2, baseline 260) was 246 beats/minute, the “mean arterial pressure (MAP)” value ([1]; Group D, 1.67 μg/kg/hr IV infusion for 4 hours, 210 min, mean of 2, baseline 89) was 85 mm Hg and the “heart rate (HR)” value ([1]; Group D, 1.67 μg/kg/hr IV infusion for 4 hours, 210 min, mean of 2, baseline 260) was 247 beats/minute. For the same compound, the “mean arterial pressure (MAP)” value ([1]; Group D, 1.67 μg/kg/hr IV infusion for 4 hours, 240 min, mean of 2, baseline 89) was 92 mm Hg, the “heart rate (HR)” value ([1]; Group D, 1.67 μg/kg/hr IV infusion for 4 hours, 240 min, mean of 2, baseline 260) was 257 beats/minute and the “duration of hypotension” value ([2]; Group A, 1 mgA/kg SC) was “sustained over the 4 hours post-dose”. The onset of hypotension ([2]; Group A, 1 mgA/kg SC) was < 2 min, the “effect on heart rate” value [2, 4] was “transient increase in heart rate” and the “effect on mean arterial pressure” value [2, 4] was “decrease in mean arterial pressure”. The “duration of hypotension” value ([2]; Group C, 0.1 mgA/kg SC) was “sustained over the 4 hours post-dose”, the onset of hypotension ([2]; Group C, 0.1 mgA/kg SC) was < 4 min and the “mean arterial pressure (MAP)” value ([2]; Group C, 5 min post-dose) was 91 mm Hg. The “heart rate (HR)” value ([2]; Group C, 5 min post-dose) was 203 beats/minute, the “mean arterial pressure (MAP)” value ([2]; Group C, 10 min post-dose) was 57 mm Hg and the “heart rate (HR)” value ([2]; Group C, 10 min post-dose) was 206 beats/minute. For the same compound, the “mean arterial pressure (MAP)” value ([2]; Group C, 15 min post-dose) was 51 mm Hg, the “heart rate (HR)” value ([2]; Group C, 15 min post-dose) was 187 beats/minute and the “mean arterial pressure (MAP)” value ([2]; Group C, 30 min post-dose) was 53 mm Hg. For the same compound, the “heart rate (HR)” value ([2]; Group C, 30 min post-dose) was 190 beats/minute, the “mean arterial pressure (MAP)” value ([2]; Group C, 60 min post-dose) was 58 mm Hg and the “heart rate (HR)” value ([2]; Group C, 60 min post-dose) was 180 beats/minute. The “mean arterial pressure (MAP)” value ([2]; Group C, 90 min post-dose) was 58 mm Hg, the “heart rate (HR)” value ([2]; Group C, 90 min post-dose) was 180 beats/minute and the “mean arterial pressure (MAP)” value ([2]; Group C, 120 min post-dose) was 62 mm Hg. The “heart rate (HR)” value ([2]; Group C, 120 min post-dose) was 183 beats/minute, the “mean arterial pressure (MAP)” value ([2]; Group C, 150 min post-dose) was 65 mm Hg and the “heart rate (HR)” value ([2]; Group C, 150 min post-dose) was 187 beats/minute. The “mean arterial pressure (MAP)” value ([2]; Group C, 180 min post-dose) was 66 mm Hg, the “heart rate (HR)” value ([2]; Group C, 180 min post-dose) was 187 beats/minute and the “mean arterial pressure (MAP)” value ([2]; Group C, 210 min post-dose) was 71 mm Hg. The “heart rate (HR)” value ([2]; Group C, 210 min post-dose) was 191 beats/minute, the “mean arterial pressure (MAP)” value ([2]; Group C, 240 min post-dose) was 79 mm Hg and the “heart rate (HR)” value ([2]; Group C, 240 min post-dose) was 193 beats/minute. The “effect on heart rate” value [2, 5] was “transient increase in heart rate that returned toward normal but leveled off and remained elevated over the 4 hours post-dose” and the “effect on mean arterial pressure” value [2, 5] was “decrease in mean arterial pressure”.
